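Step 1: Grow cells in 96-well plates. Step 2: Expose to compound for 48 hours at 5 concentrations. Step 3: Interpolate endpoints linearly; if unreached, use highest concentration. GI50: concentration for 50% inhibition of growth. At the TGI there is no net growth.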
Columns and labels:
Experiment in all cases: DTP human tumour cell line panel, 48 h
[1] = test system: ACHN renal
[2] = test system: EKVX NSCLC
[3] = test system: IGROV1 ovarian
[4] = test system: NCI-H23 lung
[5] = test system: NCI-H460 lung
[6] = test system: OVCAR-8 ovarian
[7] = test system: LOX IMVI melanoma
[8] = test system: OVCAR-3 ovarian

| SMILES | GI50 [1] [µM] | TGI [1] [µM] | GI50 [2] [µM] | TGI [2] [µM] | GI50 [3] [µM] | TGI [3] [µM] | GI50 [4] [µM] | TGI [4] [µM] | GI50 [5] [µM] | TGI [5] [µM] | GI50 [6] [µM] | TGI [6] [µM] | TGI [7] [µM] | TGI [8] [µM] | GI50 [7] [µM] | GI50 [8] [µM] |
| --- | --- | --- | --- | --- | --- | --- | --- | --- | --- | --- | --- | --- | --- | --- | --- | --- |
| CO/N=C(/C)c1cccc(Nc2cc(-n3nnc4ccccc43)nc3ccccc23)c1 | 42.3 | > 100 | 27.3 | 86.2 | > 100 | > 100 | 33.6 | > 100 | 28 | > 100 | 87.1 | > 100 | – | – | – | – |
| CCOC(=O)C(C#N)C1=CC(=O)C(=O)c2ccc(OC)cc21 (configuration not stated) | – | 30.9 | – | 51.8 | – | 35.2 | – | 30.6 | – | 58.6 | – | 54.4 | 40.7 | 47.5 | – | – |
| C/C=C/C(CC(O)(C(F)(F)F)C(F)(F)F)=N/NC(N)=S | – | > 10 | – | > 10 | – | > 10 | – | > 10 | – | > 10 | – | > 10 | > 10 | > 10 | – | – |
| CC1(C)N=C(N)N=C(N)N1c1ccc(CCCCc2ccc(Cl)cc2S(=O)(=O)F)c(Cl)c1 | 2.62 | 17.6 | – | – | 0.192 | 21 | 0.537 | 18.5 | 0.117 | 13.5 | 0.499 | 16.8 | 13.4 | 12.2 | 0.242 | 0.762 |
| COc1cc(OCc2cccc(-c3ccc(C(O)c4nccs4)cc3)c2C)cc(OC)c1C=O (configuration not stated) | 1.72 | 6.68 | 2.02 | 6.63 | 0.887 | 4.84 | 1.92 | 10.2 | 1.09 | 10.7 | 2.9 | 23.6 | 4.08 | 4.36 | 1.79 | 1.62 |
| CC1(C)C(C#N)C1C1=C(N2CCOCC2)[C@]2(C)C(OC(=O)c3ccccc3)CC[C@@H]2C1 (some centres not stated) | – | > 100 | – | > 100 | – | > 100 | – | > 100 | – | > 100 | – | > 100 | – | > 100 | – | – |
| CC1=C(C(=O)Nc2ccc(F)c(Cl)c2)C(c2ccccc2O)NC(=S)N1 (configuration not stated) | > 50 | > 50 | – | – | > 50 | > 50 | – | – | 21.4 | > 50 | 12.9 | > 50 | > 50 | 42.6 | 23.6 | 12.6 |
| O=C(/C=C/c1ccccc1)CCC1C(=O)c2ccccc2C1=O | – | > 100 | – | > 100 | – | > 100 | – | > 100 | – | > 100 | – | > 100 | > 100 | > 100 | – | – |
| Cn1cc(C2=C(c3ccc(N)cc3)C(=O)NC2=O)c2ccccc21 | 13.4 | > 25 | – | – | > 23.7 | > 25 | 21.6 | > 25 | 23.3 | > 25 | > 25 | > 25 | > 25 | > 25 | 9.88 | 14.3 |
| C(=NCCN1CCOCC1)=NC1CCCCC1 | – | > 100 | – | > 100 | – | > 100 | – | > 100 | – | > 100 | – | > 100 | > 100 | > 100 | – | – |
| CCN(CC)CCC(CNc1ccnc2cc(Cl)ccc12)c1ccc(Cl)cc1 (configuration not stated) | 0.467 | 1.78 | 3.85 | 18.8 | 2.27 | 7.33 | 1.87 | 7.1 | 2.03 | 11.1 | 1.86 | 4.79 | 2.38 | 5.98 | 1.02 | 1.96 |
| O=C(Nc1ccc2ncccc2c1)Nc1ccc2ncccc2c1 | – | > 100 | – | > 100 | – | > 100 | – | > 100 | – | > 100 | – | > 100 | > 100 | > 100 | – | – |
| CSC1=Nc2c(c(C)c(C)n2COC(CO)CO)C2=NC(=O)C(C)N12 (configuration not stated) | > 100 | > 100 | > 100 | > 100 | 39.6 | > 100 | > 100 | > 100 | > 100 | > 100 | > 100 | > 100 | > 100 | > 100 | > 100 | > 100 |
| NC(=O)/C=C/C(=O)c1c(Cl)cccc1Cl | 0.323 | 0.853 | – | – | 1.39 | 2.8 | 1.53 | 3.01 | 1.82 | 3.49 | 1.75 | 3.27 | 2.16 | 1.72 | 0.793 | 0.533 |
| COc1cccc(F)c1C(=O)c1cnc(NC2CCN(S(C)(=O)=O)CC2)nc1N | 2.16 | > 25 | – | – | 3.9 | > 25 | 3.15 | 21.7 | 0.862 | > 25 | 4.08 | > 25 | > 25 | 19 | 1.85 | 4.6 |
| Cc1cc(C)c2c(n1)sc1c(Nc3ccc(Cl)cc3)ncnc12 | < 0.01 | > 51.2 | – | – | > 100 | > 100 | < 0.01 | > 100 | < 0.01 | > 100 | < 0.01 | > 100 | > 100 | > 100 | < 0.01 | 2.39 |
| COc1cc(-c2oc(=O)ccc2C#Cc2ccccn2)cc(OC)c1OC | 11.7 | > 100 | 8.07 | > 100 | – | – | 2.4 | > 29.4 | 2.6 | > 54.2 | 3.89 | > 100 | > 100 | 2.76 | 4.38 | 0.733 |
| N#Cc1c(N)nc(N2CCOCC2)c(C#N)c1-c1ccncc1 | 40.7 | > 100 | 66.7 | > 100 | 12.3 | 39.5 | – | – | 98.1 | > 100 | > 100 | > 100 | > 100 | > 100 | 80.1 | 36.4 |
| Cc1cc(Nc2ccc(NC(=O)c3ccc(Nc4ccnc5ccccc45)cc3)cc2)nc(N)n1 | 21.6 | > 100 | 2.95 | > 100 | 15 | 63.5 | – | – | – | – | – | – | – | 4.26 | – | 1.43 |
| O=CCC1CCCCC1 | – | > 100 | – | > 100 | – | > 100 | – | > 100 | – | > 100 | – | – | > 100 | > 100 | – | – |

Source: PubChem BioAssay (NCI)
